Values joined by “and” are separate entries in the source; they are usually repeats but may differ in a detail not shown here. Equal entries are not always repeated. Where two headings read alike, the source gives them in different places.
T1: E. coli serine hydroxymethyltransferase, apo-form (E. coli, UniProt P0A825 1-417)
T1 construct: serine hydroxymethyltransferase of E. coli, encoded by the glyA gene; without PLP (apo-form); also called apo-SHMT; apoSHMT; source: apo-form prepared with L-cysteine as for apo-YggS
T1 sequence (looked up): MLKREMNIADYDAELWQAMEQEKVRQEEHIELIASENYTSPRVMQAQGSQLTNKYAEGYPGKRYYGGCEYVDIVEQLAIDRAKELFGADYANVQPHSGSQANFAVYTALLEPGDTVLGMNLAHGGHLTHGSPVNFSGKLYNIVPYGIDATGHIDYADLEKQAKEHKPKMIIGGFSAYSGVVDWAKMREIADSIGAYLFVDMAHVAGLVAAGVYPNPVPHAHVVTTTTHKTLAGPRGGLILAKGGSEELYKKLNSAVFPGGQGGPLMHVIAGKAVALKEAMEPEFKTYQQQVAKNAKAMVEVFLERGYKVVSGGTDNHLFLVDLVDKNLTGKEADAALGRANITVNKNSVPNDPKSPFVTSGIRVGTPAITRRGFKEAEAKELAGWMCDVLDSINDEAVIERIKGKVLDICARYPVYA

B1: Escherichia coli pyridoxal 5'-phosphate homeostasis protein (YggS), wild type, holo-form (natural protein, E. coli, UniProt P67080 1-234, looked up)
chain: MNDIAHNLAQVRDKISAAATRCGRSPEEITLLAVSKTKPASAIAEAIDAGQRQFGENYVQEGVDKIRHFQELGVTGLEWHFIGPLQSNKSRLVAEHFDWCHTIDRLRIATRLNDQRPAELPPLNVLIQINISDENSKSGIQLAELDELAAAVAELPRLRLRGLMAIPAPESEYVRQFEVARQMAVAFAGLKTRYPHIDTLSLGMSDDMEAAIAAGSTMVRIGTAIFGARDYSKK
modifications: PLP covalently bound to Lys36 through a Schiff base linkage
notes: YggS (PLP homeostasis protein, PLPHP) of E. coli; K233 and K234 are the last two residues; Two wild-type constructs were made in pET28b(+): His-tag at the C-terminal end (NcoI/XhoI, pET28yggS) and His-tag at the N-terminal end (NdeI/EcoRI); Samples from the standard purification held about 70-80% PLP per monomer; also called holo-YggS; YggS-PLP; source: E. coli HMS174(DE3), purified (ammonium …)

Assays:
apo‐YggS [1] = biological target: T2, apo‐YggS (Escherichia coli, UniProt P67080); assay: biochemical; type: binding
T2 construct: made in house; host or cells: E. coli HMS174(DE3)
Procedure: The thermal stability of holo‐ and apo‐YggS forms was analyzed by differential scanning fluorimetry (DSF).
Differential scanning fluorimetry (DSF) assays were performed on a Real Time PCR Instrument (CFX Connect Real Time PCR system, Bio‐Rad, Hercules, CA). In a typical experiment, 2 μM WT and variant apo‐YggS forms in 50 mM NaHEPES, pH 7.5, 50 mM NaCl, and Sypro Orange (5x, Thermo Scientific) were mixed with various ligands (total volume of 25 μl) in a 96‐well PCR plate. […] All samples were run in triplicate. Denaturation profiles were analyzed as described in Nardella et al.[40]

apo‐YggS [2] = biological target: T2, apo‐YggS; assay: Kinetics of PLP binding to apo-YggS, absorbance of protonated Schiff base; settings: manual mixing time
Procedure: (§1) Equilibrium binding analyses were carried out by measuring the decrease of protein intrinsic fluorescence observed upon the addition of increasing PLP concentrations to a fixed concentration of apo‐YggS (Figure 1b).
We set up a novel in vitro discontinuous assay in which PLP transfer from holo‐YggS to the apo‐form of eSHMT could be followed (see Section 4 for details). In this assay, the increase in SHMT activity is measured as PLP dissociates from holo‐YggS and binds to apo‐SHMT, forming the catalytically active holo‐SHMT. […] The binding kinetics of free PLP to either apo‐YggS or apo‐SHMT was measured by manually mixing 20 μM free PLP with 20 μM of protein, observing the formation of the internal aldimine at 420 nm.

apo‐YggS [3] = biological target: T2, apo‐YggS; assay: biochemical; type: binding; remark: listed apart in the source
Procedure: as §1
Dissociation constants were calculated from saturation curves obtained measuring the protein fluorescence emission intensity as a function of increasing PLP concentration. […] Fluorescence emission spectra were recorded from 310 to 450 nm upon excitation at 280 nm. Excitation and emission slits were set at 3 and 5 nm, respectively.

eSHMT = eSHMT (Escherichia coli, UniProt P0A825); assay: PLP binding to eSHMT; settings: read-out: K D for PLP
[4] = biological target: T1, E. coli serine …; assay: SPR; SensiQ Pioneer, COOH5 chip; apo-SHMT immobilised via amine coupling (100 RU); holo-YggS injected at 0.24-180 μM in PBS with 0.005% surfactant P20, 30 μl/min; done twice; Scatchard analysis; settings: both partners purified

Molecule	Kd (apo‐YggS [1]) [nM]	time to reach PLP binding equilibrium (apo‐YggS [2]) [s]	Kd (apo‐YggS [3]; dissociation constant (K D), ligand binding to WT apo-YggS, fluorescence change, 50 mM NaHEPES pH 7.6)	stoichiometry ratio of PLP binding (apo‐YggS [3]; titration with 1 μM apo-YggS)	Kd (eSHMT) [nM]	Kd [4] [nM]
Cc1ncc(COP(=O)(O)O)c(C=O)c1O [PLP, pyridoxal 5′‐phosphate]	~50000	≤ 3	1.3 nM and ~1 nM	one	~5	–
B1	–	–	–	–	–	4800 ± 800

Source: PMC9601805, “Characterization of the Escherichia coli pyridoxal 5′‐phosphate homeostasis protein (YggS): Role of lysine residues in PLP binding and protein stability” (Protein Science : A Publication of the Protein Society, 2022)
